Measured values from patent US20070099276A1, “Retrovirus-like particles and retroviral vaccines” (priority 2003, published 2007).

Target: HIV protease (Human immunodeficiency virus type 1 group M subtype B, UniProt P12497)
Assay type: cell-based, HIV-1
Experimental: Retrovirus-like particles and virions were isolated by centrifugation through a 20% sucrose pad in a SW28.1Ti rotor (Beckman-Coulter, Inc., Fullerton, Calif.) at 120,000 g at 4° C. for 1 hour. Immunoblot analyses of retrovirus-like particles and virion preparations (the equivalent of 10% of the transfection supernatant) were performed as previously described, using peroxidase-conjugated secondary antibodies and developed with the Enhanced ChemiLuminescence reagent (Amersham Life Science, Arlington Heights, Ill.). Rabbit antiserum against p6Gag (DJ-30552) and goat antiserum against, p7NC (#77), p17MA (#83), or p24CA (#81) were obtained from the AIDS Vaccine Program. Monoclonal antibody against reverse transcriptase was obtained from Perkin Elmer/NEN Life Science. N-terminal protein sequence analysis was carried out on an Applied Biosystems Procise model 494 microsequencer (Foster City, Calif.) as previously described (Chertova et al., J. Virol., 76:5315 (2002)). Micro-scale high-pressure liquid chromatography (HPLC) was performed as previously described (Chertova et al., J. Virol. 76:5315 (2002)). Matrix-assisted laser desorption/ionization-time-of-flight (MALDI) mass spectrometry was carried out as previously described (Ott et al., J. Virol., 73:19 (1999)) using a Kratos Kompact Probe (Kratos Analytical Inc., Chestnut Ridge, N.Y.).
To examine protease activity and mutant budding in another way, 293T cells were transfected with pNL4-3 or DelNC and then treated without or with 10 nM of the protease inhibitor Saquinavir for 24 hours.

For `CC(C)(C)NC(=O)[C@@H]1C[C@@H]2CCCC[C@@H]2CN1C[C@@H](O)[C@H](Cc1ccccc1)NC(=O)[C@H](CC(N)=O)NC(=O)c1ccc2ccccc2n1` [Saquinavir], the “effect on DelNC Gag processing” value was “essentially eliminated”, the “effect on amount of pNL4-3 virions in the medium” value was “not largely increased” and the “effect on cleavage of NL4-3 Gag” value was “only a slight reduction”. For the same molecule, the “effect on production of DelNC retrovirus-like particles” value was “increased”.
